According to paper PMC8887546, “Design and Synthesis of Brain Penetrant Glycopeptide Analogues of PACAP With Neuroprotective Potential for Traumatic Brain Injury and Parkinsonism” (Frontiers in drug discovery, 2022):
Where two headings read alike, the source gives them in different places.

Assays:
human PAC1 receptor = target: T1, human PAC1 receptor (Homo sapiens, UniProt P41586); assay: cAMP stimulation in CHO cells expressing PAC1; type: cell-based; details: for Emax: CHO
T1 construct: expressed in transfected cells; host or cells: CHO cells (G418 selection)
T1 sequence (P41586 21-468): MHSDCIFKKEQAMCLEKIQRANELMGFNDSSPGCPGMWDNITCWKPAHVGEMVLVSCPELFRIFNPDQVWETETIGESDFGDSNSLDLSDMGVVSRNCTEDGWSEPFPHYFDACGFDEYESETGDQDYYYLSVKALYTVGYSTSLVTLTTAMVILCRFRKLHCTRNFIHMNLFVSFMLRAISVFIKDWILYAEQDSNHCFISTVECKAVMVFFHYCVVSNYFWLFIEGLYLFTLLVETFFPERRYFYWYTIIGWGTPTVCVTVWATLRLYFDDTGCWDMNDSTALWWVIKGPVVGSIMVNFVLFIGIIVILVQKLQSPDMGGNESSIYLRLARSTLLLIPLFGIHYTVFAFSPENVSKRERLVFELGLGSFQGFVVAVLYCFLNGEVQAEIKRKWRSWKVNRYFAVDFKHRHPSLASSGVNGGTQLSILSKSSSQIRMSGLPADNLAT
Protocol: Briefly, human PAC1, VPAC1, and VPAC2 receptors expressed in CHO cells were used for all experiments. Cells were grown in 50:50 DMEM-F12 medium with 10% heat-inactivated fetal bovine serum, 1X penicillin-streptomycin supplement, and 500 μg/ml G418 (neomycin) to maintain selection (all from ThermoFisher) at 37°C with 5% CO2 atmosphere. For the cAMP assay, cells were seeded at 20,000 cells/well in a 96 well plate, recovered overnight, then serum starved for 4 h. The cells were then incubated with 500 μM IBMX for 20 min, followed by agonist concentration curves in 500 μM IBMX media for 10 min. The reaction was terminated, boiled, then collected, followed by competition with 7 μg of bovine protein kinase A (Sigma-Aldrich) and ∼1 pmol of ^3H-cAMP (PerkinElmer). The assay was incubated at room temp for 1 h, then collected onto GF/B filter plates and the data read using a MicroBeta2 scintillation counter (PerkinElmer).

human VPAC1 receptor = target: T2, human VPAC1 receptor (Homo sapiens, UniProt P32241); assay: cAMP stimulation in CHO cells expressing VPAC1; type: cell-based
T2 construct: expressed in transfected cells; host or cells: CHO cells (G418 selection)
T2 sequence (P32241 31-457): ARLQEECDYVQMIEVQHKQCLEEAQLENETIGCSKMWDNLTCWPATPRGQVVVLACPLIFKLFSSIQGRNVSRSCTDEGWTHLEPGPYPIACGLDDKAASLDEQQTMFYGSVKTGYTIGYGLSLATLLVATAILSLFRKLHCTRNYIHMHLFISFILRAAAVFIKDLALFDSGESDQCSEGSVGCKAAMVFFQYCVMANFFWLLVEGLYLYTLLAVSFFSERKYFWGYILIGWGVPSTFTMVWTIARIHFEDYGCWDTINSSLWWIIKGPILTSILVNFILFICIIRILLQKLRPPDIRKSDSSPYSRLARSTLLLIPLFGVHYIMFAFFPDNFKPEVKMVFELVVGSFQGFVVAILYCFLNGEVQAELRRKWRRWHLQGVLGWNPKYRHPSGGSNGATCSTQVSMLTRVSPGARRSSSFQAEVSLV

Compound | Emax (human PAC1 receptor) [%] | Emax (human VPAC1 receptor; CHO; read-out: VPAC1 Emax) [%] | further results
CCC[C@H](NC(=O)[C@H](CCC(N)=O)NC(=O)[C@H](CCCCN)NC(=O)[C@H](CCCNC(=N)N)NC(=O)[C@H](Cc1ccc(O)cc1)NC(=O)[C@H](CCCNC(=N)N)NC(=O)[C@H](CO)NC(=O)[C@H](Cc1ccc(O)cc1)NC(=O)[C@H](CO)NC(=O)[C@H](CC(=O)O)NC(=O)[C@@H](NC(=O)[C@H](Cc1ccccc1)NC(=O)[C@@H](NC(=O)CCCNC(=O)[C@H](CC(=O)O)NC(=O)[C@@H](CO)NC(=O)[C@@H](N)Cc1c[nH]cn1)[C@@H](C)CC)[C@@H](C)O)C(=O)N[C@@H](C)C(=O)N[C@H](C(=O)N[C@@H](CCCCN)C(=O)N[C@@H](CCCCN)C(=O)N[C@@H](Cc1ccc(O)cc1)C(=O)N[C@@H](CC(C)C)C(=O)N[C@@H](C)C(=O)N[C@@H](C)C(=O)N[C@H](C(=O)N[C@@H](CC(C)C)C(=O)N[C@@H](CO[C@@H]1O[C@H](CO)[C@@H](O)[C@H](O)[C@H]1O)C(N)=O)C(C)C)C(C)C [CRA3006] | 78 | 103 | –
CC[C@H](C)[C@H](NC(=O)CNC(=O)[C@H](CC(=O)O)NC(=O)[C@@H](CO)NC(=O)[C@@H](N)Cc1c[nH]cn1)C(=O)N[C@@H](Cc1ccccc1)C(=O)N[C@H](C(=O)N[C@@H](CC(=O)O)C(=O)N[C@@H](CO)C(=O)N[C@@H](Cc1ccc(O)cc1)C(=O)N[C@@H](CO)C(=O)N[C@@H](CCCNC(=N)N)C(=O)N[C@@H](Cc1ccc(O)cc1)C(=O)N[C@@H](CCCNC(=N)N)C(=O)N[C@@H](CCCCN)C(=O)N[C@@H](CCC(N)=O)C(=O)N[C@@H](CC(C)C)C(=O)N[C@@H](C)C(=O)N[C@H](C(=O)N[C@@H](CCCCN)C(=O)N[C@@H](CCCCN)C(=O)N[C@@H](Cc1ccc(O)cc1)C(=O)N[C@@H](CC(C)C)C(=O)N[C@@H](C)C(=O)N[C@@H](C)C(=O)N[C@H](C(=O)N[C@@H](CC(C)C)C(N)=O)C(C)C)C(C)C)[C@@H](C)O [2LS72–3] | 95.3 ± 8.1 | – | EC50 (human PAC1 receptor): 48.6 ± 32 nM
CCC[C@H](NC(=O)[C@H](CCC(N)=O)NC(=O)[C@H](CCCCN)NC(=O)[C@H](CCCNC(=N)N)NC(=O)[C@H](Cc1ccc(O)cc1)NC(=O)[C@H](CCCNC(=N)N)NC(=O)[C@H](CO)NC(=O)[C@H](Cc1ccc(O)cc1)NC(=O)[C@H](CO)NC(=O)[C@H](CC(=O)O)NC(=O)[C@H](C)NC(=O)[C@H](Cc1ccccc1)NC(=O)[C@@H](NC(=O)CNC(=O)[C@H](CC(=O)O)NC(=O)[C@@H](CO)NC(=O)[C@@H](N)Cc1c[nH]cn1)[C@@H](C)CC)C(=O)N[C@@H](C)C(=O)N[C@H](C(=O)N[C@@H](CCCCN)C(=O)N[C@@H](CCCCN)C(=O)N[C@@H](Cc1ccc(O)cc1)C(=O)N[C@@H](CC(C)C)C(=O)N[C@@H](C)C(=O)N[C@@H](C)C(=O)N[C@H](C(=O)N[C@@H](CO[C@@H]1O[C@H](CO)[C@@H](O)[C@H](O)[C@H]1O)C(N)=O)C(C)C)C(C)C [CRA3004] | – | – | EC50 (human VPAC1 receptor): 1370 nM; Emax (human VPAC1 receptor; CHO, read-out: VPAC1 Emax): 85%
CCC[C@H](NC(=O)[C@H](CCC(N)=O)NC(=O)[C@H](CCCCN)NC(=O)[C@H](CCCNC(=N)N)NC(=O)[C@H](Cc1ccc(O)cc1)NC(=O)[C@H](CCCNC(=N)N)NC(=O)[C@H](CO)NC(=O)[C@H](Cc1ccc(O)cc1)NC(=O)[C@H](CO)NC(=O)[C@H](CC(=O)O)NC(=O)[C@H](C)NC(=O)[C@H](Cc1ccccc1)NC(=O)[C@@H](NC(=O)CNC(=O)[C@H](CC(=O)O)NC(=O)[C@@H](CO)NC(=O)[C@@H](N)Cc1c[nH]cn1)[C@@H](C)CC)C(=O)N[C@@H](C)C(=O)N[C@H](C(=O)N[C@@H](CCCCN)C(=O)N[C@@H](CCCCN)C(=O)N[C@@H](Cc1ccc(O)cc1)C(=O)N[C@@H](CC(C)C)C(=O)N[C@@H](C)C(=O)N[C@@H](C)C(=O)N[C@@H](CO[C@@H]1O[C@H](CO)[C@@H](O)[C@H](O)[C@H]1O)C(=O)N[C@@H](CC(C)C)C(N)=O)C(C)C [CRA3005] | – | 78 | EC50 (human VPAC1 receptor; read-out: VPAC1 EC50): 1620 nM
PACAP6–38 [reference compound] | – | – | Antagonism of PAC1 (human PAC1 receptor; cAMP assay in CHO cells): unable to demonstrate antagonism

More lines, main results first:

Emax (human PAC1 receptor) [%] | Emax (human VPAC1 receptor; CHO; read-out: VPAC1 Emax) [%] | Compound | further results
74.3 ± 9.7 | – | CC[C@H](C)[C@H](NC(=O)CNC(=O)[C@H](CC(=O)O)NC(=O)[C@H](CO)NC(=O)[C@@H](N)Cc1c[nH]cn1)C(=O)N[C@@H](Cc1ccccc1)C(=O)N[C@H](C(=O)N[C@@H](CC(=O)O)C(=O)N[C@@H](CO)C(=O)N[C@@H](Cc1ccc(O)cc1)C(=O)N[C@@H](CO)C(=O)N[C@@H](CCCNC(=N)N)C(=O)N[C@@H](Cc1ccc(O)cc1)C(=O)N[C@@H](CCCNC(=N)N)C(=O)N[C@@H](CCCCN)C(=O)N[C@@H](CCC(N)=O)C(=O)N[C@@H](CC(C)C)C(=O)N[C@@H](C)C(=O)N[C@H](C(=O)N[C@@H](CCCCN)C(=O)N[C@@H](CCCCN)C(=O)N[C@@H](Cc1ccc(O)cc1)C(=O)N[C@@H](CC(C)C)C(=O)N[C@@H](C)C(=O)N[C@@H](C)C(=O)N[C@H](C(=O)N[C@@H](CC(C)C)C(N)=O)C(C)C)C(C)C)[C@@H](C)O [2LS72–2] | EC50 (human PAC1 receptor): 90.7 nM
97 | 78 | CCC[C@H](NC(=O)[C@H](CCC(N)=O)NC(=O)[C@H](CCCCN)NC(=O)[C@H](CCCNC(=N)N)NC(=O)[C@H](Cc1ccc(O)cc1)NC(=O)[C@H](CCCNC(=N)N)NC(=O)[C@H](CO)NC(=O)[C@H](Cc1ccc(O)cc1)NC(=O)[C@H](CO)NC(=O)[C@H](CC(=O)O)NC(=O)[C@@H](NC(=O)[C@H](Cc1ccccc1)NC(=O)[C@@H](CCC)NC(=O)CNC(=O)[C@H](CC(=O)O)NC(=O)[C@@H](CO)NC(=O)[C@@H](N)Cc1c[nH]cn1)[C@@H](C)O)C(=O)N[C@@H](C)C(=O)N[C@H](C(=O)N[C@@H](CCCCN)C(=O)N[C@@H](CCCCN)C(=O)N[C@@H](Cc1ccc(O)cc1)C(=O)N[C@@H](CC(C)C)C(=O)N[C@@H](C)C(=O)N[C@@H](C)C(=O)N[C@H](C(=O)N[C@@H](CC(C)C)C(=O)N[C@@H](CO[C@@H]1O[C@H](CO)[C@@H](O)[C@H](O)[C@H]1O)C(N)=O)C(C)C)C(C)C [CRA3020] | –
144 ± 20.7 | – | CC[C@H](C)[C@H](NC(=O)CNC(=O)[C@H](CC(=O)O)NC(=O)[C@H](CO)NC(=O)[C@@H](N)Cc1c[nH]cn1)C(=O)N[C@@H](Cc1ccccc1)C(=O)N[C@H](C(=O)N[C@@H](CC(=O)O)C(=O)N[C@@H](CO)C(=O)N[C@@H](Cc1ccc(O)cc1)C(=O)N[C@@H](CO)C(=O)N[C@@H](CCCNC(=N)N)C(=O)N[C@@H](Cc1ccc(O)cc1)C(=O)N[C@@H](CCCNC(=N)N)C(=O)N[C@@H](CCCCN)C(=O)N[C@@H](CCC(N)=O)C(=O)N[C@@H](CC(C)C)C(=O)N[C@@H](C)C(=O)N[C@H](C(=O)N[C@@H](CCCCN)C(=O)N[C@@H](CCCCN)C(=O)N[C@@H](Cc1ccc(O)cc1)C(=O)N[C@@H](CC(C)C)C(=O)N[C@@H](C)C(=O)N[C@@H](C)C(=O)N[C@H](C(=O)N[C@@H](CC(C)C)C(=O)N[C@@H](CO[C@@H]1O[C@H](CO)[C@@H](O[C@@H]2O[C@H](CO)[C@H](O)[C@H](O)[C@H]2O)[C@H](O)[C@H]1O)C(N)=O)C(C)C)C(C)C)[C@@H](C)O [Compound 2LS80Lact] | –
